Source: patent US9757455B2, “Oral therapeutic compound delivery system” (Johnson & Johnson Consumer Inc., priority 2005, dated 2017)
In brackets after ≈: the same amount, converted by molar mass. Where a name gives a salt, the structure may show the parent alone. Read-outs that look alike come from different tables or passages of the source.

Assays:
[1] = Dissolution, USP dissolution apparatus 2, 900 mL 0.0033 N hydrochloric acid, 30 rpm, 37° C.; assay type: physicochemical; conditions: basic and amphoteric drugs in formulations according to the invention (Table 32)
Method: (§1) Testing was conducted in a dissolution medium containing 900 mL 0.0033 N hydrochloric acid (HCl) at 37° C. which discriminates better between fast dissolving formulations than more acidic dissolution media where the effect of high acid concentration tends to mask formulation effects on dissolution. 900 mL of this medium contains the absolute amount of acid estimated to be present in the gastric contents in vivo, namely 3 millimoles.
(§2) Testing at was conducted at a stirring speed of 30 rpm and also at 0 rpm which provides more discrimination between formulations. To achieve maximum dissolution, the stirring speed was increased to 250 rpm for 10 minutes after 20 minutes for measurements at 30 rpm, and after 60 minutes for measurements at 0 rpm.
(§3) Unless otherwise stated, drug concentrations were measured using a Varian Cary 50 UV-Vis Spectrophotometer set at an appropriate wavelength using flow through cells for automatic continuous sampling. For each drug, the optimal wavelength was selected after running UV scans in the dissolution medium.
A suitable C18 column and guard column were used. Results were processed using Waters Empower software.

[2] = Dissolution, USP dissolution apparatus 2, 900 mL 0.0033 N hydrochloric acid, 0 rpm, 37° C.; assay type: physicochemical; conditions: for % dissolved in 900 mL 0.0033 N HCl: basic and amphoteric drugs in formulations according to the invention (Table 32), 0 rpm
Method: as §1
Dissolution results without stirring may be of in vivo significance in conditions where there is gut stasis or reduced gastric activity.
as §2, §3

Solubility in water = conditions: for solubility: water; for Volume of water (mL) to dissolve dose: dose per tablet as in label
[3] = 30 minutes, 30 rpm (increased to 250 rpm after 20 minutes)
[4] = pH modulating agent: Bicarb + acid, 300 sec (Table 33)
[5] = pH modulating agent: Bicarb + acid, 15 min (Table 33)
[6] = pH modulating agent: Bicarb + acid, 30 min (Table 33)
[7] = pH modulating agent: Bicarbonate, 300 sec (Table 33)
[8] = pH modulating agent: Bicarbonate, 15 min (Table 33)
[9] = pH modulating agent: Bicarbonate, 30 min (Table 33)
[10] = dose (mg) of each drug as in Table 78

SMILES	% dissolved in 900 mL 0.0033 N HCl ([1]; 180 sec, 30 rpm) [%]	% dissolved in 900 mL 0.0033 N HCl ([1]; 300 sec, 30 rpm) [%]	% dissolved in 900 mL 0.0033 N HCl ([1]; 15 minutes, 30 rpm) [%]	% dissolved in 900 mL 0.0033 N HCl [1, 3] [%]	% dissolved in 900 mL 0.0033 N HCl ([2]; 180 sec) [%]	% dissolved in 900 mL 0.0033 N HCl ([2]; 300 sec) [%]	% dissolved in 900 mL 0.0033 N HCl ([2]; 15 minutes) [%]	% dissolved in 900 mL 0.0033 N HCl ([2]; 30 minutes) [%]	% drug dissolved in 900 mL 0.0033 N HCl at 0 rpm [2, 4] [%]	% drug dissolved in 900 mL 0.0033 N HCl at 0 rpm [2, 5] [%]	% drug dissolved in 900 mL 0.0033 N HCl at 0 rpm [2, 6] [%]	% drug dissolved in 900 mL 0.0033 N HCl at 0 rpm [2, 7] [%]	% drug dissolved in 900 mL 0.0033 N HCl at 0 rpm [2, 8] [%]	% drug dissolved in 900 mL 0.0033 N HCl at 0 rpm [2, 9] [%]	Volume (mL) of water to dissolve dose (Solubility in water; [10]) [mL]	Effect of ↑ pH on solubility (Solubility in water)	solubility (Solubility in water) [µg/mL]	Volume of water (mL) to dissolve dose (Solubility in water)	Volume (mL) of water to dissolve dose (Solubility in water) [mL]
Cc1nnc2n1-c1ccc(Cl)cc1C(c1ccccc1)=NC2 [Alprazolam]	61	67	77	100	13	20	45	63	20	45	63	1	4	4	14	–	–	–	–
Cc1ccc(-c2cc(C(F)(F)F)nn2-c2ccc(S(N)(=O)=O)cc2)cc1 [Celecoxib]	–	–	–	–	–	–	–	–	–	–	–	–	–	–	–	⇄	3.46 (≈ 9.07 µM)	–	–
C[C@@H]1C[C@H]2[C@@H]3CCC4=CC(=O)C=C[C@]4(C)[C@@]3(F)[C@@H](O)C[C@]2(C)[C@@]1(O)C(=O)CO [Dexamethasone]	–	–	–	–	–	–	–	–	–	–	–	–	–	–	–	⇄	–	–	–
O=C(O)Cc1ccccc1Nc1c(Cl)cccc1Cl [Diclofenac potassium]	–	–	–	–	–	–	–	–	–	–	–	–	–	–	–	↑	10000	7 mL	–
CN1CCC[C@@H]1Cc1c[nH]c2ccc(CCS(=O)(=O)c3ccccc3)cc12 [Eletriptan hydrochloride, Eletriptan hydrobromide]	94	96	97	99	88	95	98	100	–	–	–	–	–	–	4	–	–	–	–
Cc1ccc(C)c(OCCCC(C)(C)C(=O)O)c1 [Gemfibrozil]	–	–	–	–	–	–	–	–	–	–	–	–	–	–	–	↑	29 (≈ 116 µM)	20,690 mL	–
CC(C)Cc1ccc(C(C)C(=O)O)cc1 (stereo not shown) [Ibuprofen]	–	–	–	–	–	–	–	–	–	–	–	–	–	–	–	↑	40 (≈ 194 µM)	–	–
CN(C)C(=O)C(CCN1CCC(O)(c2ccc(Cl)cc2)CC1)(c1ccccc1)c1ccccc1 [Loperamide hydrochloride]	82	84	89	100	70	72	87	95	72	87	95	27	43	101	–	–	–	–	2
O=C1Nc2ccc(Cl)cc2C(c2ccccc2Cl)=NC1O (stereo not shown) [Lorazepam]	77	88	96	100	77	85	95	99	85	95	99	6	6	11	–	–	–	–	–
